Data from patent US9434684B2, “Oxime-substituted amide compound and pest control agent” (Nissan Chemical Industries, Ltd., priority 2012, dated 2016).

What was measured:
Sclerotinia sclerotiorum = assay: Preventive effect against cucumber stem rot; assay type: in vivo; settings: 48 h, test solution A 500 ppm, 2 days
Experimental: (§1) Compounds of the present invention were dissolved in a solvent for emulsion (a mixture of Sorpol (registered trademark) 3005XL (manufactured by Toho Chemical Industry Co., Ltd.): N-methylpyrrolidone:Solvesso (registered trademark) 200 (manufactured by ExxonMobil Chemical) in a ratio of 1:5:2) to prepare 20% emulsifiable concentrates. Then, distilled water was added to dilute the emulsifiable concentrates to the predetermined concentration (500 ppm), and the obtained solutions were used in the following Test Examples 1 to 7. Cucumber (cultivar: Sagami Hanjiro) was planted in 90 cm^3 plastic pots, and in the seed leaf stage, 5 ml per pot of test solutions A of the compounds of the present invention were applied. After drying in air, the pots were put in a plastic container, and agar blocks (diameter: 5 mm) containing Sclerotinia sclerotiorum preliminarily cultivated in a PDA medium were inoculated to the seed leaves of the cucumber treated with the solutions. After the inoculation, the plastic container was covered with a plastic sheet and humidified, and placed at 20° C. for 2 days, whereupon the proportion of the formed lesion in the inoculated leaves was measured to calculate the control value in accordance with the same formula as in Test Example 1. Here, the test was carried out in duplicate.

Botrytis cinerea [1] = assay: Preventive effect against cucumber gray mold (mycelium inoculation); assay type: in vivo; settings: 48 h, test solution A 500 ppm, 2 days
Experimental: as §1, with “On the next day,” for “After drying in air,”, “Botrytis cinerea” for “Sclerotinia sclerotiorum”

Botrytis cinerea [2] = assay: Preventive effect against cucumber gray mold (spore inoculation); assay type: in vivo; settings: 72 h, cucumber leaves, test solution A 500 ppm, 3 days
Experimental: Compounds of the present invention were dissolved in a solvent for emulsion (a mixture of Sorpol (registered trademark) 3005XL (manufactured by Toho Chemical Industry Co., Ltd.): N-methylpyrrolidone:Solvesso (registered trademark) 200 (manufactured by ExxonMobil Chemical) in a ratio of 1:5:2) to prepare 20% emulsifiable concentrates. Then, distilled water was added to dilute the emulsifiable concentrates to the predetermined concentration (500 ppm), and the obtained solutions were used in the following Test Examples 1 to 7. Cucumber (cultivar: Sagami Hanjiro) was planted in 90 cm^3 plastic pots, and in the seed leaf stage, 5 ml per pot of test solutions A of the compounds of the present invention were applied. After drying in air, the treated leaves were cut and put in plastic containers. 30 μl of a mixture of a suspension of conidium of Botrytis cinerea and a dissolved PDA medium in a ratio of 1:1 was dropped on each treated leaf and inoculated. After the inoculation, the plastic containers were placed at 20° C. in humid conditions for 3 days, and the proportion of the formed lesion in the inoculated leaves was measured to calculate the control value in accordance with the same formula as in Test Example 1. Here, the test was carried out in duplicate.

[3] = test system: Phaeosphaeria nodorum (synonym: Septoria nodorum); assay: Preventive effect against wheat glume blotch; assay type: in vivo; settings: Parastagonospora nodorum, 192 h, test solution A 500 ppm, 2 + 6 days
Experimental: (§2) Compounds of the present invention were dissolved in a solvent for emulsion (a mixture of Sorpol (registered trademark) 3005XL (manufactured by Toho Chemical Industry Co., Ltd.): N-methylpyrrolidone:Solvesso (registered trademark) 200 (manufactured by ExxonMobil Chemical) in a ratio of 1:5:2) to prepare 20% emulsifiable concentrates. Then, distilled water was added to dilute the emulsifiable concentrates to the predetermined concentration (500 ppm), and the obtained solutions were used in the following Test Examples 1 to 7. To wheat (cultivar: Haruyutaka) in 1.3-leaf stage planted in 90 cm^3 plastic pots, 5 ml per pot of test solutions A of the compounds of the present invention were applied. On the next day, a suspension of conidium of Phaeosphaeria nodorum synonym: Septoria nodorum) was spray-inoculated to the wheat, and the pots were placed in an inoculation chamber at 20° C. under a humidity of 100% for 2 days. Then, the pots were placed in an air-conditioned greenhouse (20° C.) for 6 days. The proportion of the formed lesion in the inoculated leaves was measured to calculate the control value in accordance with the same formula as in Test Example 1. Here, the test was carried out in duplicate.

Puccinia recondita = assay: Preventive effect against wheat brown leaf rust; assay type: in vivo; settings: 216 h, test solution A 500 ppm, 1 + 8 days
Experimental: as §2, with “Norin-61-go)” for “Haruyutaka)”, “spore” for “conidium”, “Puccinia recondita” for “Phaeosphaeria nodorum synonym: Septoria nodorum)”, “1 day.” for “2 days.”, “8” for “6”

Meloidogyne incognita = assay: Preventive effect on Meloidogyne incognita (garden balsam seedlings, root knot); assay type: in vivo; settings: 504 h, test solution B 100 ppm, 1 ml per seedling, 3 weeks, read-out: efficacy (damage degree, root knot, relative to non-treated plot)
Experimental: Compounds of the present invention were dissolved in dimethylsulfoxide to prepare 1% solutions. Then, distilled water was added to dilute the solutions to the predetermined concentration (100 ppm), and the obtained solutions were used in the following Test Examples 8 to 12. 1 ml per seedling of test solutions B of the compounds of the present invention were treated to the bases of garden balsam seedlings (about 2 weeks after budding) planted in a cell tray of which each cell was filled with 10 g of soil. 1 Hour after the application, 1 ml per cell of water containing Meloidogyne incognita 2 L larvae (100 2 L larvae/1 ml) was applied to the bases. The tray was placed in a greenhouse for 3 weeks, and the root knot level formed on the root was determined in accordance with the following damage index and the damage degree to calculate the efficacy (%) relative to the non-treated plot in accordance with the following formula. <Damage Index> 0: No knot observed. 1: Knot observed on a part of the root system. 2: Knot observed on the entire root system. 3: Large knot observed. 4: Large knot observed on the entire root system. [Damage degree]=[Σ(damage index×number of seedlings at each index)/(4×number of seedlings investigated)]×100 Efficacy(%)=[1−(damage degree in treated plot/damage degree in non-treated plot)]×100

Botrytis cinerea [4] = assay: Preventive effect against cucumber gray mold (spore inoculation); assay type: in vivo; settings: 72 h, cucumber leaves, 100 ppm solution (*), 3 days
Botrytis cinerea [5] = assay: Preventive effect against cucumber gray mold (mycelium inoculation); assay type: in vivo; settings: 48 h, 100 ppm solution (*), 2 days

SMILES	pest or weed control at 500 µg/mL (Sclerotinia sclerotiorum) [%]	pest or weed control at 500 µg/mL (Botrytis cinerea [1]) [%]	pest or weed control at 500 µg/mL (Botrytis cinerea [2]) [%]	melting point [°C]	pest or weed control at 500 µg/mL [3] [%]	pest or weed control at 500 µg/mL (Puccinia recondita) [%]	pest or weed control at 100 µg/mL (Meloidogyne incognita) [%]	pest or weed control at 100 ppm (Botrytis cinerea [4]) [%]	pest or weed control at 100 ppm (Botrytis cinerea [5]) [%]
CC(C)(C)ON=C(CNC(=O)c1nccnc1C(F)(F)F)c1ncc(Cl)cc1Cl (single isomer, unassigned) [9-006, N-[2-(3,5-dichloropyridin-2-yl)-2-(tert-butoxyimino)ethyl]-3-(trifluoromethyl)pyrazine-2-carboxamide]	≥ 70	≥ 70							
CON=C(CN(C(=O)c1c(C(F)(F)F)nn(C)c1F)C1CC1)c1ncc(Cl)cc1Cl [Compound No. 17-009, N-cyclopropyl-N-[2-(3,5-dichloropyridin-2-yl)-2-(methoxyimino)ethyl]-5-fluoro-1-methyl-3-trifluoromethyl-1H-pyrazole-4-carboxamide]	≥ 70		≥ 70	95 to 97	≥ 70				
CON=C(CNC(=S)c1ccccc1C(F)(F)F)c1ncc(Br)cc1Cl [Compound No. 5-001, N-[2-(5-bromo-3-chloropyridin-2-yl)-2-(methoxyimino)ethyl]-2-(trifluoromethyl)benzthioamide]	≥ 70	≥ 70	≥ 70		≥ 70	≥ 70			
CCO/N=C(/CNC(=O)c1ccccc1C(F)(F)F)c1ncc(Cl)cc1Cl [Compound No. 2-120, (Z)—N-[2-(3,5-dichloropyridin-2-yl)-2-(ethoxyimino)ethyl]-2-(trifluoromethyl)benzamide]		≥ 70	≥ 70	84 to 86	≥ 70	≥ 70	≥ 50		
CO/N=C(\c1ncc(Cl)cc1Cl)C(C)NC(=O)c1ccccc1C(F)(F)F (centres unmarked) [Compound No. 2-117, (Z)—N-[2-(3,5-dichloropyridin-2-yl)-2-methoxyimino-1-methylethyl]-2-(trifluoromethyl)benzamide]		≥ 70	≥ 70	104 to 105		≥ 70	≥ 50		
CCCO/N=C(/CNC(=O)c1ccccc1C(F)(F)F)c1ncc(Cl)cc1Cl [Compound No. 2-126, (Z)—N-[2-(3,5-dichloropyridin-2-yl)-2-(propoxyimino)ethyl]-2-(trifluoromethyl)benzamide]				80 to 83		≥ 70	≥ 50		
CO/N=C(/CNC(=O)c1ccccc1C(F)(F)F)c1ncc(Cl)cc1Cl [Compound No. 2-114, (Z)—N-[2-(3,5-dichloropyridin-2-yl)-2-(methoxyimino)ethyl]-2-(trifluoromethyl)benzamide]	≥ 70			88 to 89			≥ 50	≥ 70	≥ 70
CCO/N=C(\c1ncc(Cl)cc1Cl)[C@H](C)NC(=O)c1ccccc1C(F)(F)F [2-124, (S)—N-[2-(3,5-dichloropyridin-2-yl)-2-[(Z)-ethoxyimino]-1-methylethyl]-2-(trifluoromethyl)benzamide]	≥ 70	≥ 70	≥ 70		≥ 70	≥ 70			
CC(C)ON=C(CNC(=O)c1ccccc1C(F)(F)F)c1ncc(Cl)nc1Cl [24-001]	≥ 70	≥ 70	≥ 70						
CON=C(CN(SC(Cl)(Cl)Cl)C(=O)c1ccccc1C(F)(F)F)c1ncc(Cl)cc1Cl [4-015]	≥ 70	≥ 70	≥ 70						
CON=C(c1ncc(Cl)cc1Cl)C(C)NC(=O)c1ccccc1C(F)(F)F (centres unmarked) [Compound No. 2-115, N-[2-(3,5-dichloropyridin-2-yl)-2-methoxyimino-1-methylethyl]-2-(trifluoromethyl)benzamide]	≥ 70	≥ 70	≥ 70		≥ 70	≥ 70	≥ 50		
CON=C(CN(C(C)=O)C(=O)c1ccccc1C(F)(F)F)c1ncc(Cl)cc1Cl [4-013]	≥ 70	≥ 70	≥ 70						
